“And” between values parts separate entries of the source, which are not always exact repeats. Equal values may be shown once. Inconclusive results and toxic doses are left out. Rule for the calls: active = survival T/C of 150% or more; inactive = T/C below 125% in these data.
Tested on: BDF1 mice, P388 leukemia ip, median survival T/C
Test: NCI In Vivo Anticancer Drug Screen. Data for tumor model P388 Leukemia (intraperitoneal) in B6D2F1 (BDF1) mice
Conditions: endpoint: median survival time, higher = longer survival
Experimental: The antitumor activity of compounds was measured in mice bearing transplantable tumors. Survival or tumor size were measured and the results are expressed as the measurement made in the treated group (T) divided by the measurement made in the vehicle treated control group (C). The tumor model used in this assay is P388 Leukemia (intraperitoneal) in B6D2F1 (BDF1) mice

[1] = dose: 100.0 mg/kg/injection, schedule: Q04DX003 (ip), vehicle: saline sonified
[2] = dose: 200.0 mg/kg/injection, schedule: Q04DX003 (ip), vehicle: saline sonified
[3] = dose: 400.0 mg/kg/injection, schedule: Q04DX003 (ip), vehicle: saline sonified
[4] = dose: 50.0 mg/kg/injection, schedule: Q01DX009 (ip), vehicle: saline with Tween-80
[5] = dose: 100.0 mg/kg/injection, schedule: Q01DX009 (ip), vehicle: saline with Tween-80
[6] = dose: 200.0 mg/kg/injection, schedule: Q01DX009 (ip), vehicle: saline with Tween-80
[7] = dose: 100.0 mg/kg/injection, schedule: Q04DX003 (ip), vehicle: Klucel (hydroxypropylcellulose) (HPC)
[8] = dose: 200.0 mg/kg/injection, schedule: Q04DX003 (ip), vehicle: Klucel (hydroxypropylcellulose) (HPC)
[9] = dose: 100.0 mg/kg/injection, schedule: Q04DX003 (ip), vehicle: saline with Tween-80
[10] = dose: 200.0 mg/kg/injection, schedule: Q04DX003 (ip), vehicle: saline with Tween-80
[11] = dose: 400.0 mg/kg/injection, schedule: Q01DX009 (ip), vehicle: saline with Tween-80
[12] = dose: 400.0 mg/kg/injection, schedule: Q04DX003 (ip), vehicle: saline with Tween-80
[13] = dose: 10.0 mg/kg/injection, schedule: Q01DX009 (ip), vehicle: saline with Tween-80
[14] = dose: 20.0 mg/kg/injection, schedule: Q01DX009 (ip), vehicle: saline with Tween-80
[15] = dose: 50.0 mg/kg/injection, schedule: Q04DX003 (ip), vehicle: saline with Tween-80
[16] = dose: 25.0 mg/kg/injection, schedule: Q01DX009 (ip), vehicle: saline
[17] = dose: 100.0 mg/kg/injection, schedule: Q01DX009 (ip), vehicle: saline

Measured: T/C

C(=Nc1ccc2c(c1)Cc1ccccc1-2)c1ccc2ccccc2c1
inactive: dose: 12.5 mg/kg/injection, schedule: Q04DX002 (ip), vehicle: saline with Tween-80 103 % of control | dose: 25.0 mg/kg/injection, schedule: Q04DX002 (ip), vehicle: saline with Tween-80 94 % of control | dose: 50.0 mg/kg/injection, schedule: Q04DX002 (ip), vehicle: saline with Tween-80 97 % of control

Cc1ccc2c(c1)Sc1ccc3ccccc3c1N2
inactive: [1] 113 % of control | [2] 90 % of control | [3] 100 % of control

CCS(=O)C(C)(C)C (stereo unspecified)
inactive: [4] 102 % of control | [5] 102 % of control | [6] 102 % of control

O=C(O)c1ccc(CCCC2CCCC2)cc1
inactive: [7] 109 % of control | [8] 100 % of control

Cc1nc2ccccc2c(=O)n1/N=C/c1ccco1
inactive: [4] 107 % of control | [5] 90 % of control

C[C@]12[C@@H]3CC(=O)C[C@@]1(CC[C@@H]1[C@@H]2CC[C@]2(C)OC(=O)CC[C@@H]12)SS3
inactive: [5] 100 % of control | [9] 104 % of control | [6] 91 % of control | [10] 90 % of control | [11] 95 % of control | [12] 90 % of control

COc1ccc(C2=CCCCC2)cc1
inactive: [5] 103 % of control | [9] 104 % of control | [6] 103 % of control | [10] 104 % of control | [12] 95 % of control

CCN(CC)CCC(=O)c1ccccc1
inactive: [4] 95 % of control

CCN(CC)Cc1nc2nc(Cl)c(Cl)nc2[nH]1
inactive: dose: 5.0 mg/kg/injection, schedule: Q01DX009 (ip), vehicle: saline with Tween-80 112 % of control | [13] 114 % of control | dose: 12.5 mg/kg/injection, schedule: Q04DX003 (ip), vehicle: saline with Tween-80 114 % of control | [14] 98 % of control | dose: 25.0 mg/kg/injection, schedule: Q04DX003 (ip), vehicle: saline with Tween-80 100 % of control and 114 % of control | [15] 88 % of control and 100 % of control and 104 % of control

Cc1[nH]ncc1Br
inactive: [5] 105 % of control | [6] 98 % of control | [11] 105 % of control

O=C(CC(C(=O)c1ccccc1)N1CC1)c1ccccc1 (stereo unspecified)
inactive: [15] 90 % of control | [9] 90 % of control

O=[N+]([O-])c1ccc(N2CCCC2)c2c1no[n+]2[O-]
inactive: [15] 101 % of control | [9] 101 % of control | [10] 108 % of control

CC(C)=CCNc1ncnc2nc[nH]c12
inactive: [13] 104 % of control | [14] 104 % of control | dose: 20.0 mg/kg/injection, schedule: Q04DX003 (ip), vehicle: saline with Tween-80 95 % of control | dose: 40.0 mg/kg/injection, schedule: Q04DX003 (ip), vehicle: saline with Tween-80 95 % of control | dose: 80.0 mg/kg/injection, schedule: Q04DX003 (ip), vehicle: saline with Tween-80 100 % of control

Nc1nc(N)c2nc(CNc3ccc(C(=O)NC(CC(=O)O)C(=O)O)cc3)cnc2n1 (stereo unspecified)
inactive: dose: 66.0 mg/kg/injection, schedule: Q04DX003 (ip), vehicle: saline with Tween-80 104 % of control | [9] 100 % of control

CC(=O)[S][Pb]([c]1ccccc1)([c]1ccccc1)[c]1ccccc1
inactive: dose: 4.0 mg/kg/injection, schedule: Q01DX009 (ip), vehicle: Klucel (hydroxypropylcellulose) (HPC) 114 % of control | dose: 5.9 mg/kg/injection, schedule: Q01DX009 (ip), vehicle: Klucel (hydroxypropylcellulose) (HPC) 110 % of control | dose: 9.0 mg/kg/injection, schedule: Q01DX009 (ip), vehicle: Klucel (hydroxypropylcellulose) (HPC) 106 % of control

NC(=S)n1cccn1
inactive: dose: 50.0 mg/kg/injection, schedule: Q01DX010 (ip), vehicle: water 118 % of control

CN(C)CC(C)(C)CO
inactive: [16] 96 % of control | dose: 50.0 mg/kg/injection, schedule: Q01DX009 (ip), vehicle: saline 106 % of control | [17] 101 % of control | dose: 200.0 mg/kg/injection, schedule: Q01DX009 (ip), vehicle: saline 107 % of control

CC(=O)c1ccccc1OS(=O)(=O)c1ccc([N+](=O)[O-])cc1
inactive: dose: 100.0 mg/kg/injection, schedule: Q01DX009 (ip), vehicle: saline sonified 95 % of control | [1] 100 % of control | dose: 200.0 mg/kg/injection, schedule: Q01DX009 (ip), vehicle: saline sonified 104 % of control | [2] 90 % of control | [3] 100 % of control

C=CS(=O)(=O)c1ccccc1
inactive: dose: 18.0 mg/kg/injection, schedule: Q01DX009 (ip), vehicle: saline with Tween-80 114 % of control | dose: 18.0 mg/kg/injection, schedule: Q04DX003 (ip), vehicle: saline with Tween-80 90 % of control | dose: 24.0 mg/kg/injection, schedule: Q01DX009 (ip), vehicle: saline with Tween-80 100 % of control | dose: 36.0 mg/kg/injection, schedule: Q01DX009 (ip), vehicle: saline with Tween-80 116 % of control | dose: 36.0 mg/kg/injection, schedule: Q04DX003 (ip), vehicle: saline with Tween-80 100 % of control | dose: 72.0 mg/kg/injection, schedule: Q01DX009 (ip), vehicle: saline with Tween-80 114 % of control | dose: 72.0 mg/kg/injection, schedule: Q04DX003 (ip), vehicle: saline with Tween-80 109 % of control

N#Cc1c(SCc2ccc(Cl)cc2)nsc1Nc1ccc(Cl)cc1
inactive: [4] 108 % of control

c1ccc(COCC[P+](c2ccccc2)(c2ccccc2)c2ccccc2)cc1
inactive: dose: 2.5 mg/kg/injection, schedule: Q01DX010 (ip), vehicle: saline 90 % of control | dose: 5.0 mg/kg/injection, schedule: Q01DX010 (ip), vehicle: saline 100 % of control | dose: 10.0 mg/kg/injection, schedule: Q01DX010 (ip), vehicle: saline 113 % of control

Cc1cnc2c(C)cccc2c1/C=C/c1ccc(N(C)C)cc1
inactive: [4] 116 % of control | [5] 116 % of control | [6] 103 % of control

Cc1noc(/N=C/c2ccccc2)c1C
inactive: dose: 100.0 mg/kg/injection, schedule: Q01DX001 (ip), vehicle: Klucel (hydroxypropylcellulose) (HPC) 108 % of control | [7] 95 % of control | dose: 200.0 mg/kg/injection, schedule: Q01DX001 (ip), vehicle: Klucel (hydroxypropylcellulose) (HPC) 104 % of control | [8] 100 % of control and 104 % of control | dose: 400.0 mg/kg/injection, schedule: Q01DX001 (ip), vehicle: Klucel (hydroxypropylcellulose) (HPC) 112 % of control | dose: 400.0 mg/kg/injection, schedule: Q04DX003 (ip), vehicle: Klucel (hydroxypropylcellulose) (HPC) 91 % of control and 100 % of control

C=CCCC(=O)OC(C)(C)C
inactive: dose: 12.5 mg/kg/injection, schedule: Q01DX009 (ip), vehicle: water 103 % of control | [16] 109 % of control | dose: 25.0 mg/kg/injection, schedule: Q01DX009 (ip), vehicle: water 100 % of control | dose: 25.0 mg/kg/injection, schedule: Q04DX003 (ip), vehicle: water 106 % of control | dose: 50.0 mg/kg/injection, schedule: Q01DX009 (ip), vehicle: water 100 % of control | dose: 50.0 mg/kg/injection, schedule: Q04DX003 (ip), vehicle: water 116 % of control | [17] 109 % of control | dose: 100.0 mg/kg/injection, schedule: Q04DX003 (ip), vehicle: water 114 % of control | dose: 200.0 mg/kg/injection, schedule: Q04DX003 (ip), vehicle: water 98 % of control | dose: 400.0 mg/kg/injection, schedule: Q01DX009 (ip), vehicle: saline 100 % of control | dose: 400.0 mg/kg/injection, schedule: Q04DX003 (ip), vehicle: water 114 % of control

S=c1cc(-c2ccccc2)ss1
inactive: [9] 110 % of control and 101 % of control | [10] 115 % of control and 101 % of control | [12] 108 % of control

CC1=C(C)CC2C(=O)C(C(O)CC(C)C)=CC(=O)C2C1 (stereo unspecified)
inactive: [9] 100 % of control | [10] 113 % of control | [12] 93 % of control

CCCCNC(C)(C)C(SSSC(C)=O)c1ccco1 (stereo unspecified)
inactive: dose: 3.12 mg/kg/injection, schedule: Q01DX009 (ip), vehicle: saline with Tween-80 88 % of control | dose: 6.25 mg/kg/injection, schedule: Q01DX009 (ip), vehicle: saline with Tween-80 111 % of control | dose: 12.5 mg/kg/injection, schedule: Q01DX009 (ip), vehicle: saline with Tween-80 102 % of control | dose: 25.0 mg/kg/injection, schedule: Q01DX009 (ip), vehicle: saline with Tween-80 101 % of control and 102 % of control | [4] 103 % of control
